{
  "source": "the supplement of paper PMC10307832",
  "test_in_all_cases": "relative viability (nuclei count vs DMSO), 5 days (fraction); higher = more cells survive",
  "key": {"EMC-BAC-2": {"system": "EMC-BAC-2", "how_it_was_run": "(§1)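 Relative viability divides the nuclei count in treated wells by that in vehicle wells. Lung cancer cell lines were seeded in 1536-well plates, dosed by pin tool the next day, and fixed and stained after 5 days in one step with final 0.05% Triton X-100, 1% formaldehyde and 1 ug/ml Hoechst. Dosing was a single drug or a fixed anchor-drug dose plus five library-drug doses (not always all listed) in √10 steps, and values are medians of duplicate plates imaged at 4×.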"}, "EPLC-272H": {"system": "EPLC-272H", "how_it_was_run": "as §1"}, "H3255": {"system": "H3255", "how_it_was_run": "as §1"}, "HOP-62": {"system": "HOP-62", "how_it_was_run": "as §1"}, "LCLC-97TM1": {"system": "LCLC-97TM1", "how_it_was_run": "as §1"}, "LXF-289": {"system": "LXF-289", "how_it_was_run": "as §1"}, "NCI-H1563": {"system": "NCI-H1563", "how_it_was_run": "as §1"}, "NCI-H1915": {"system": "NCI-H1915", "how_it_was_run": "as §1"}, "NCI-H1993": {"system": "NCI-H1993", "how_it_was_run": "as §1"}, "NCI-H2009": {"system": "NCI-H2009", "how_it_was_run": "as §1"}, "NCI-H2023": {"system": "NCI-H2023", "how_it_was_run": "as §1"}, "NCI-H2085": {"system": "NCI-H2085", "how_it_was_run": "as §1"}, "NCI-H2126": {"system": "NCI-H2126", "how_it_was_run": "as §1"}, "NCI-H2347": {"system": "NCI-H2347", "how_it_was_run": "as §1"}, "NCI-H322M": {"system": "NCI-H322M", "how_it_was_run": "as §1"}, "NCI-H647": {"system": "NCI-H647", "how_it_was_run": "as §1"}, "NCI-H661": {"system": "NCI-H661", "how_it_was_run": "as §1"}, "NCI-H727": {"system": "NCI-H727", "how_it_was_run": "as §1"}, "PC-14": {"system": "PC-14", "how_it_was_run": "as §1"}, "SK-LU-1": {"system": "SK-LU-1", "how_it_was_run": "as §1"}, "SW 1573": {"system": "SW 1573", "how_it_was_run": "as §1"}},
  "data": [
    {"smiles": "Oc1nc(-c2ccc(C(F)(F)F)cc2)nc2c1CSCC2", "note": "[XAV939] + C[C@]1(O)C[C@@H](c2nc(-c3ccc4ccc(-c5ccccc5)nc4c3)c3c(N)nccn32)C1 [Linsitinib] (partner 1 µM)", "values": [
      {"measurement": "relative viability", "setting": "EMC-BAC-2; first compound 0.08 µM", "value": 0.868},
      {"measurement": "relative viability", "setting": "EMC-BAC-2; first compound 0.253 µM", "value": 0.705},
      {"measurement": "relative viability", "setting": "EMC-BAC-2; first compound 0.8 µM", "value": 0.711},
      {"measurement": "relative viability", "setting": "EMC-BAC-2; first compound 2.53 µM", "value": 0.511},
      {"measurement": "relative viability", "setting": "EPLC-272H; first compound 0.08 µM", "value": 1.3},
      {"measurement": "relative viability", "setting": "EPLC-272H; first compound 0.253 µM", "value": 1.08},
      {"measurement": "relative viability", "setting": "EPLC-272H; first compound 0.8 µM", "value": 1.18},
      {"measurement": "relative viability", "setting": "EPLC-272H; first compound 2.53 µM", "value": 1.09},
      {"measurement": "relative viability", "setting": "H3255; first compound 0.08 µM", "value": 0.981},
      {"measurement": "relative viability", "setting": "H3255; first compound 0.253 µM", "value": 0.843},
      {"measurement": "relative viability", "setting": "H3255; first compound 0.8 µM", "value": 1.05},
      {"measurement": "relative viability", "setting": "H3255; first compound 2.53 µM", "value": 0.784},
      {"measurement": "relative viability", "setting": "HOP-62; first compound 0.08 µM", "value": 1.01},
      {"measurement": "relative viability", "setting": "HOP-62; first compound 0.253 µM", "value": 0.882},
      {"measurement": "relative viability", "setting": "HOP-62; first compound 0.8 µM", "value": 0.954},
      {"measurement": "relative viability", "setting": "HOP-62; first compound 2.53 µM", "value": 0.939},
      {"measurement": "relative viability", "setting": "LCLC-97TM1; first compound 0.08 µM", "value": 0.192},
      {"measurement": "relative viability", "setting": "LCLC-97TM1; first compound 0.253 µM", "value": 0.19},
      {"measurement": "relative viability", "setting": "LCLC-97TM1; first compound 0.8 µM", "value": 0.206},
      {"measurement": "relative viability", "setting": "LCLC-97TM1; first compound 2.53 µM", "value": 0.167},
      {"measurement": "relative viability", "setting": "LXF-289; first compound 0.08 µM", "value": 0.991},
      {"measurement": "relative viability", "setting": "LXF-289; first compound 0.253 µM", "value": 0.954},
      {"measurement": "relative viability", "setting": "LXF-289; first compound 0.8 µM", "value": 0.975},
      {"measurement": "relative viability", "setting": "LXF-289; first compound 2.53 µM", "value": 0.952},
      {"measurement": "relative viability", "setting": "NCI-H1563; first compound 0.08 µM", "value": 1.2},
      {"measurement": "relative viability", "setting": "NCI-H1563; first compound 0.253 µM", "value": 1.01},
      {"measurement": "relative viability", "setting": "NCI-H1563; first compound 0.8 µM", "value": 1.07},
      {"measurement": "relative viability", "setting": "NCI-H1563; first compound 2.53 µM", "value": 0.871},
      {"measurement": "relative viability", "setting": "NCI-H1915; first compound 0.08 µM", "value": 1.13},
      {"measurement": "relative viability", "setting": "NCI-H1915; first compound 0.253 µM", "value": 1.11},
      {"measurement": "relative viability", "setting": "NCI-H1915; first compound 0.8 µM", "value": 1.04},
      {"measurement": "relative viability", "setting": "NCI-H1915; first compound 2.53 µM", "value": 1.11},
      {"measurement": "relative viability", "setting": "NCI-H1993; first compound 0.8 µM", "value": 0.754},
      {"measurement": "relative viability", "setting": "NCI-H1993; first compound 2.53 µM", "value": 0.719},
      {"measurement": "relative viability", "setting": "NCI-H2009; first compound 0.08 µM", "value": 1.19},
      {"measurement": "relative viability", "setting": "NCI-H2009; first compound 0.253 µM", "value": 0.904},
      {"measurement": "relative viability", "setting": "NCI-H2009; first compound 0.8 µM", "value": 1.17},
      {"measurement": "relative viability", "setting": "NCI-H2009; first compound 2.53 µM", "value": 1.09},
      {"measurement": "relative viability", "setting": "NCI-H2023; first compound 0.08 µM", "value": 0.699},
      {"measurement": "relative viability", "setting": "NCI-H2023; first compound 0.253 µM", "value": 0.626},
      {"measurement": "relative viability", "setting": "NCI-H2023; first compound 0.8 µM", "value": 0.625},
      {"measurement": "relative viability", "setting": "NCI-H2023; first compound 2.53 µM", "value": 0.447},
      {"measurement": "relative viability", "setting": "NCI-H2085; first compound 0.08 µM", "value": 0.811},
      {"measurement": "relative viability", "setting": "NCI-H2085; first compound 0.253 µM", "value": 0.771},
      {"measurement": "relative viability", "setting": "NCI-H2085; first compound 0.8 µM", "value": 0.91},
      {"measurement": "relative viability", "setting": "NCI-H2085; first compound 2.53 µM", "value": 0.888},
      {"measurement": "relative viability", "setting": "NCI-H2126; first compound 0.08 µM", "value": 0.727},
      {"measurement": "relative viability", "setting": "NCI-H2126; first compound 0.253 µM", "value": 0.61},
      {"measurement": "relative viability", "setting": "NCI-H2126; first compound 0.8 µM", "value": 0.672},
      {"measurement": "relative viability", "setting": "NCI-H2126; first compound 2.53 µM", "value": 0.642},
      {"measurement": "relative viability", "setting": "NCI-H2347; first compound 0.08 µM", "value": 1.08},
      {"measurement": "relative viability", "setting": "NCI-H2347; first compound 0.253 µM", "value": 0.997},
      {"measurement": "relative viability", "setting": "NCI-H2347; first compound 0.8 µM", "value": 0.931},
      {"measurement": "relative viability", "setting": "NCI-H2347; first compound 2.53 µM", "value": 1},
      {"measurement": "relative viability", "setting": "NCI-H322M; first compound 0.08 µM", "value": 0.966},
      {"measurement": "relative viability", "setting": "NCI-H322M; first compound 0.253 µM", "value": 0.872},
      {"measurement": "relative viability", "setting": "NCI-H322M; first compound 0.8 µM", "value": 0.909},
      {"measurement": "relative viability", "setting": "NCI-H322M; first compound 2.53 µM", "value": 0.618},
      {"measurement": "relative viability", "setting": "NCI-H647; first compound 0.08 µM", "value": 1.13},
      {"measurement": "relative viability", "setting": "NCI-H647; first compound 0.253 µM", "value": 0.864},
      {"measurement": "relative viability", "setting": "NCI-H647; first compound 0.8 µM", "value": 1.06},
      {"measurement": "relative viability", "setting": "NCI-H647; first compound 2.53 µM", "value": 1.02},
      {"measurement": "relative viability", "setting": "NCI-H661; first compound 0.08 µM", "value": 0.653},
      {"measurement": "relative viability", "setting": "NCI-H661; first compound 0.253 µM", "value": 0.568},
      {"measurement": "relative viability", "setting": "NCI-H661; first compound 0.8 µM", "value": 0.649},
      {"measurement": "relative viability", "setting": "NCI-H661; first compound 2.53 µM", "value": 0.35},
      {"measurement": "relative viability", "setting": "NCI-H727; first compound 0.08 µM", "value": 0.315},
      {"measurement": "relative viability", "setting": "NCI-H727; first compound 0.253 µM", "value": 0.246},
      {"measurement": "relative viability", "setting": "NCI-H727; first compound 0.8 µM", "value": 0.233},
      {"measurement": "relative viability", "setting": "NCI-H727; first compound 2.53 µM", "value": 0.372},
      {"measurement": "relative viability", "setting": "PC-14; first compound 0.08 µM", "value": 0.954},
      {"measurement": "relative viability", "setting": "PC-14; first compound 0.253 µM", "value": 0.831},
      {"measurement": "relative viability", "setting": "PC-14; first compound 0.8 µM", "value": 1.04},
      {"measurement": "relative viability", "setting": "PC-14; first compound 2.53 µM", "value": 0.844},
      {"measurement": "relative viability", "setting": "SK-LU-1; first compound 0.08 µM", "value": 1.2},
      {"measurement": "relative viability", "setting": "SK-LU-1; first compound 0.253 µM", "value": 1.03},
      {"measurement": "relative viability", "setting": "SK-LU-1; first compound 0.8 µM", "value": 1.02},
      {"measurement": "relative viability", "setting": "SK-LU-1; first compound 2.53 µM", "value": 1.07},
      {"measurement": "relative viability", "setting": "SW 1573; first compound 0.08 µM", "value": 0.78},
      {"measurement": "relative viability", "setting": "SW 1573; first compound 0.253 µM", "value": 0.675},
      {"measurement": "relative viability", "setting": "SW 1573; first compound 0.8 µM", "value": 0.739},
      {"measurement": "relative viability", "setting": "SW 1573; first compound 2.53 µM", "value": 0.635}
    ]}
  ]
}
